Here are results for four compounds from patent publication US10501453B2, “Benzothiazole or benzoxazole compounds as SUMO activators” (Icahn School of Medicine at Mount Sinai, priority 2012, dated 2019).

One data set concerns YFP-SUMO1. The data set can be described thus: YFP-SUMO1 accumulation (cell image) in HEK-293 cells expressing YFP-SUMO1 and pcDNA3.0-SERCA2a. It is filed as cell-based. The conditions noted are these: increase vs. DMSO; for fold induction at 10 µM: Homo sapiens, HEK293, 24 hours. An excerpt:
(§1) The following antibodies were used for immunoblotting and immunoprecipitation (IP): polyclonal anti-SERCA2a (21th century Biochem Inc.), monoclonal anti-GAPDH (Sigma-Aldrich, catalog no. G8795), monoclonal anti-SUMO 1 (Cell Signaling Technology Inc., catalog no. 4930), anti-mouse horseradish peroxidase (HRP) (Pierce Biotechnology Inc., catalog no. 32430), and anti-rabbit HRP (Pierce Biotechnology Inc., catalog no. 32460). YFP-tagged SUMO1, pcDNA3.0-SERCA2a, and HA-tagged Ubc9 plasmids were used for the transfection. The plasmid DNA was amplified in the Escherichia coli strain DH5a and extracted by using a commercial purification kit (Qiagen, catalog no. 12263). Purified plasmid was resuspended in sterile TE buffer (10 mM Tris-HCl and 1 mM EDTA, pH 7.6). Only the preparation highest purity (A260/A280>1.8) was used for transfection. 1 μg of each plasmid was used for transfection. HEK-293 cells (American Type Culture Collection, catalog no. CRL-1873) were grown at 37° C. and under a 5% CO2 humidified atmosphere in Dulbecco's modified Eagle's medium (DMEM, Cellgro, catalog no. 10-0 13-CM) containing 10% fetal bovine serum (SAFC Bioscience, catalog no. 12107) and 100 i.u of penicillin/ml and 100 μg of streptomycin/ml. HEK-293 cells were seeded at a density of 3-5×10^5 cells per 60 mm culture dish in DMEM. The cells were transiently transfected using Lipofectamine 2000 (Invitrogen, catalog no. 11668) with indicated expression plasmids. After 24 hours, the cells were treated with either small molecules or dimethyl sulfoxide (DMSO, Sigma-Aldrich, catalog no. D2650).
(§2) Each compound was added at 10 μM. DMSO was used as a control. After 24 hours at 37° C., SERCA2a SUMOylation and functional analysis were determined.
Cellular permeability and potential activity of the compounds were examined by tracking of the YFP-SUMO1. HEK-293 cells expressing YFP-SUMOI and pcDNA3.0-SERCA2a were incubated with either 10 μM DMSO or 10 μM small molecules for 24 hours at 37° C. Fluorescent signals were monitored by fluorescence microscopy. HA-tagged Ubc9 expressing cells were served as a positive control.
The ability of the Example compound to SUMOylate SERCA2a was examined using an in vitro system in HEK 293 cells where both SERCA2a and SUMO 1 are expressed. The cellular permeability and potential activity of the Example compounds was examined by tracking of the YFP-SUM01. HEK-293 cells expressing YFP-SUM01 and pcDNA3.0-SERCA2a were treated with either 10 μM DMSO or 10 μM indicated Example 1 for 24 hrs. Fluorescent signals were monitored by fluorescence microscopy. HA-Ubc9 expressing cells were served as a positive control. The SERCA2a SUMOylation profiling was then analyzed by using the same cells (FIG. 1B, WCL, whole cell lysates; S-SERCA2a, SUMOylated SERCA2a).

A further data set concerns SERCA2a. Nature of the data set: SERCA2a SUMOylation assay in HEK-293 cells (immunoprecipitation/immunoblotting). It is filed as cell-based. The conditions noted are these: compared with DMSO control; 10 μM.
Excerpt: as §1, §2
Equal amounts of protein from either small molecule treated or DMSO treated cells or immunoprecipitates were resolved by 7.5% SDS-PAGE and transferred to nitrocellulose membranes (Bio-Rad, catalog no. 162-0112). The membranes were blocked for 1 hour at room temperature with 5% non-fat milk (Cell Signaling Technology Inc., catalog no. 9999) in TBST (10 mM Tris-HCl, 150 mM NaCl, and 0.05% tween-20, pH 8.0). The blots were incubated with specific primary antibodies at 4° C. for overnight. The blots were then washed five times for 10 minutes each with TBST and incubated for 1 hour with HRP-conjugated secondary antibodies in TBST with 5% non-fat milk. After five times TBST washes, the protein bands were visualized with enhanced chemiluminescence (Pierce Biotechnology Inc., catalog no. 32132) and exposed to x-ray film (Denville Scientific Inc., catalog no. E3012). GAPDH expression provided an internal control.
Post-transfection (48 hours), the HEK-293 cells were rinsed twice with phosphate-buffered saline (PBS, Cellgro, catalog no. 21-040-CM) and lysed in 1% Nonidet P-40 lysis buffer (Boston Bioproducts, catalog no. BP-119) with 10 mM N-ethylmaleimide (NEM, Sigma-Aldrich, catalog no. N3876) and […] inhibitor cocktail (Complete Mini Tablet, Roche Applied Science, catalog no. 11836153001). 2 mg of protein were mixed with the anti-SERCA2a antibodies for overnight at 4° C. in lysis buffer. Pre-washed protein A-Separose beads (Pierce Biotechnology Inc., catalog no. 20333) was added to each sample and incubated 1 hour at 4° C. with gentle rocking. Immunocomplexes were washed with lysis buffer three times and precipitated by centrifugation at 12000×g for 10 seconds. The immunocomplexes were resuspended in SDS sample buffer and subjected to immunoblotting. Controls for the immunoprecipitations were performed using an anti-rabbit IgG equal to that of the primary precipitating antibody. Ten percent of whole cell lysates used in the immunoprecipitation was loaded for subsequent immunoblotting.
The ability of the Example compound to SUMOylate SERCA2a was examined using an in vitro system in HEK 293 cells where both SERCA2a and SUMO 1 are expressed. […]

Data set [1] deals with HEK-293 cells.
Data set [2] concerns HEK-293 cells. The data set can be described thus: Toxicity (Table 2; cytotoxicity in the compound screen).
A short description of a further data set: Solubility (Table 2). The conditions noted are these: DMSO, organic solvent or mixture.
Data set [3] concerns adult rat ventricular myocytes (ARVMs). The data set can be described thus: Cell shortening/re-lengthening and calcium transient of ARVMs (IonOptix). It is filed as cell-based. To be noted: compared to DMSO control; 10 μM. The method, then:
Calcium-tolerant adult rat ventricular myocytes (ARVMs) were obtained from hearts of male Sprague-Dawley rats (250 to 300 g). The heart was excised and perfused with a standard enzymatic technique. ARVMs were plated on multi-chambered plates or culture dishes, pre-coated with laminin 2 μg/cm^2, at a density of 10^5 cells/cm^2 in DMEM without L-glutamine supplemented with 10 mmol/l HEPES, 3.7 mg/ml NaHCO3, 1 mg/ml glucose, 0.11 mg/ml sodium pyruvate, 2 mg/ml bovine serum albumin, 2 mmol/1 L-camitine, 5 mmol/1 creatine, 5 mmol/1 taurine, 1% penicillin-streptomycin, and 1% gentamycin. Following isolation, cells were allowed to settle for 1 hour. Cultures were incubated at 37° C., in an atmosphere of 5% CO2-95% air. Fresh medium was added gently as medium was being drawn off until the cultures had been thoroughly washed. Only quiescent, rod-shape cardiac myocytes were selected for IonOptix experiments.
as §2
Mechanical properties of ARVMs were assessed using an IonOptix MyoCam® system (IonOptix, Milton, Mass.). In brief, cells were placed in a Warner chamber mounted on the stage of an inverted microscope (Olympus, IX-70) and superfused (1 ml/min at 30° C.) with a buffer containing 131 mM NaCl, 4 mM KCl, 1 mM CaCh, 1 mM MgCh, 10 mM glucose, and 10 mM HEPES, pH 7.4. ARVMs were field stimulated with suprathreshold voltage and at a frequency of 0.5 Hz. […] SoftEdge software (IonOptix) was used to capture changes in cell length during shortening and re-lengthening.
ARVMs were placed in a chamber on an Olympus IX-70 inverted microscope and imaged through a Fluor 40× oil objective. ARVMs were exposed to light emitted by a 75 W lamp and passed through either a 360 or a 380 nm filter (bandwidths were ±15 nm), while being stimulated to contract at 0.5 Hz. Fluorescence emissions were detected between 480 and 520 nm by a photomultiplier tube after first illuminating cells at 360 nm for 0.5 s then at 380 nm for the duration of the recording protocol (333 Hz sampling rate). The 360 nm excitation scan was repeated at the end of the protocol and qualitative changes in intracellular Ca^2+ concentration ((Ca^2+]i) were inferred from the ratio of the fluorescence intensity at two wavelengths.
The effects of the Example compound was examined on isolated rat cardiomyocytes shortening and relaxation parameters. […] Effects of Example 1 on mechanical properties of the ARVMs were assessed using a video-based edge detection system (IonOptix). The time constant of the increase of force during the stretch decreased (tau), percentage of peak shortening (PS), maximal rate of relaxation and contraction were analyzed at 24 hrs postincubation of the compounds in culture media (N=10 ARVMs). The mechanical data were analyzed with student's t-test (FIG. 2A, P<0.05 compared to the DMSO treated cells). SERCA2a SUMOylation profiling was analyzed in a same set of ARVMs (FIG. 2B, WCL, whole cell lysates; S-SERCA2a, SUMOylated SERCA2a).

≈ marks a conversion by molar mass, not a printed value. Where two headings read alike, the source gives them in different places.

For “N-(6-fluorobenzo[d]thiazol-2-yl)-5-(4-methoxyphenyl)-1,3,4-oxadiazol-2-amine [Example 14]”, the YFP accumulation result in the data set with YFP-SUMO1 (10 μM, 24 hours) was “Active”. Also, the “SERCA2a SUMOylation” value in the data set with SERCA2a was “Not statistically significant”. Also, in the data set with HEK-293 cells [1], the Toxicity is given as > 50%.
For the compound `COc1ccc(-c2nnc(Nc3nc4c(F)cccc4s3)o2)cc1` [Example 4, N-(4-fluorobenzo[d]thiazol-2-yl)-5-(4-methoxyphenyl)-1,3,4-oxadiazol-2-amine], the Toxicity entry in the data set with HEK-293 cells [2] was “Non-toxic”. In the data set on YFP-SUMO1, this compound showed a fold induction at 10 µM of 2.34. Also, in “Solubility (Table 2)”, the solubility was found to be 10 mM (≈ 3420 µg/mL). Besides, the “Cardiac Contraction: Peak shortening” value in data set [3] was “Peak shortening 4.3x compared to DMSO control”. In the data set with SERCA2a, the “SERCA2a SUMOylation” value is “Increased 1.4x compared with DMSO control”.
In the same order, the values of `Fc1ccc(-c2nnc(Nc3nc4c(F)cccc4s3)o2)cc1` [Example 2, N-(4-fluorobenzo[d]thiazol-2-yl)-5-(4-fluorophenyl)-1,3,4-oxadiazol-2-amine] are “Non-toxic”, 2.93, 10 mM (≈ 3300 µg/mL), “Peak shortening 2.2x compared to DMSO control” and “Increased 1.34x compared with DMSO control”.
Regarding `COc1cccc(-c2nnc(Nc3nc4c(F)cccc4s3)o2)c1` [Example 3, N-(4-fluorobenzo[d]thiazol-2-yl)-5-(3-methoxyphenyl)-1,3,4-oxadiazol-2-amine], the Toxicity result with HEK-293 cells [2] is on record as “Non-toxic”. Besides, the fold induction at 10 µM in the data set with YFP-SUMO1 was 2.49. Further, the solubility in the data set “Solubility (Table 2)” turned out to be 10 mM (≈ 3420 µg/mL). Moreover, the “Cardiac Contraction: Peak shortening” value in data set [3] is on record as “Peak shortening 2.5x compared to DMSO control”. Also, in the data set with SERCA2a, the “SERCA2a SUMOylation” value is given as “Increased 1.43x compared with DMSO control”.
